Our source for the Emax and EC50 values is patent US20120077957A1, “Lactam-Bridged Melanocortin Receptor-Specific Peptides” (PALATIN TECHNOLOGIES, INC., priority 2009, published 2012).

SMILES strings stand for the structures. Like-named read-outs stand apart in the source and are kept apart here. Bridge positions count the residues as written; N and C are the ends. Square brackets hold non-standard residues; d marks the D form. Peptide text beside a SMILES is read from it. Orn = NCCC[C@H](N)C(=O)O

One may read the Emax as the maximal effect, on the per cent scale that the assay sets. The term EC50 denotes the concentration needed to bring the measured effect to its halfway point.

The assay has as its target T1, human MC4-R (Homo sapiens, UniProt P32245).
T1 construct: expressed in transfected cells; host or cells: HEK293 T-REx (tetracycline-regulated, Invitrogen); cell line from Palatin Technologies with license from the University of Michigan
The experiment in a line: cAMP functional assay in HEK-293 T-REx cells expressing human MC4-R, induced with doxycycline 0.1 ng/mL (low density). Type of assay: cell-based. The following applies: for Emax: HEK293-T-REx. From the text: A HEK293 cell line transfected with human MC4-R (from Palatin Technologies, US, with license from the University of Michigan) was used. The human MC4-R was introduced to HEK293 by using the T-REx™ System, Invitrogen. The T-REx™ System employs a tetracycline-regulated mammalian expression system that uses regulatory elements from the E. coli Tn10-encoded tetracycline (Tet) resistance operon. By use of the T-REx™ System, expression of the gene of interest, the human MC4-R gene, is repressed in the absence of tetracycline or doxycycline and induced in the presence of tetracycline or doxycycline (see T-REx™ System Manual, published by Invitrogen).
Cells were then counted and volume was adjusted to 5×10^4 cells per 200 μL.
The cells were then dispensed into 96-well plates (BD 353916) in 198 μL (about 5×10^4) cells/well and incubated for 10 minutes at 37° C. The compound to be tested was diluted with DMSO to a final concentration of 1 mM. Serial dilution was prepared in polypropylene removable 12-well library tube strips (VWR cat #83009-682). 120 μL of the 1 mM compound stock was pipetted in the second column on the plate.
2 μL of the standard, [Nle^4, D-Phe^7]alpha-Melanocyte Stimulating Hormone (NDP-α-MSH), or compound was added to the 96-well plate using the Janus robotic system. All assay samples were run in duplicate (i.e. each sample was in two low dox and two high dox plates, respectively). The plates were gently shaken and incubated for 15 minutes at 37° C. The reaction was stopped by adding 15 μL of lysis buffer per well and the plates were shakened for 30 minutes at room temperature.
Agonist stimulation of the MC4-R activates adenylate cyclase, which is an enzyme that catalyses the formation 3′,5′-cyclic adenosine monophosphate (cAMP) from adenosine triphosphate (ATP). […] Fluoresence ratios were then calculated as described in the CisBio HTRF kit, with GraphPad Prism software used to plot the change in fluorescence percent values versus cAMP concentration using the variable slope dose response curve and, based on calculated cAMP concentrations, to determine EC50 and Emax values. […]

Where [1] appears, read: maximal cAMP stimulation, NDP-α-MSH = 100%, doxycycline 0.1 ng/mL, averages of all comparable assays, read-out: Emax.
Where [2] appears, read: human MC4-R cAMP assay, doxycycline 0.1 ng/mL, averages of all comparable assays, read-out: Ec50.

T1 sequence (P32245 whole entry): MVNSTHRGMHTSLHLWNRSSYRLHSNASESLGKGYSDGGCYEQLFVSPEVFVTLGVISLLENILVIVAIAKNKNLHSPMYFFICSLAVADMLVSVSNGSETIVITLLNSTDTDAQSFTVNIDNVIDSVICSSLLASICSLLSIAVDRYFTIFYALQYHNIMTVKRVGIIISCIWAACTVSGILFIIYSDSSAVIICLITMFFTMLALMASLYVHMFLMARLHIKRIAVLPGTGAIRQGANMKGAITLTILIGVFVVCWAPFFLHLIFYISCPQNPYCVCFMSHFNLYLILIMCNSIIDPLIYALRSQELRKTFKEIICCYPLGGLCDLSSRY

Compound `CCCC[C@H](NC(C)=O)C(=O)N[C@H]1CC(=O)NCCCC[C@@H](C(=O)O)NC(=O)[C@H](Cc2c[nH]c3ccccc23)NC(=O)[C@H](CCCNC(=N)N)NC(=O)[C@@H](Cc2ccccc2)NC(=O)[C@H](Cc2c[nH]cn2)NC1=O` [Ac-Nle-cyclo(Asp-His-D-Phe-Arg-Trp-Lys)-OH, reference compound] had a maximal response (Emax) of 81%. Regarding `CC(=O)N[C@@H](CCCNC(=N)N)C(=O)N[C@H]1CCC(=O)NCCC[C@@H](C(=O)O)NC(=O)[C@H](Cc2c[nH]c3ccccc23)NC(=O)[C@H](CCCNC(=N)N)NC(=O)[C@@H](Cc2ccccc2)NC(=O)[C@H](Cc2c[nH]cn2)NC1=O` [No. 3, Ac-Arg-cyclo(Glu-His-D-Phe-Arg-Trp-Orn)-OH] (Ac-REH[dF]RW[Orn]-OH; lactam 2-7), under setting [1], the Emax came out at 83%. For the same compound, the EC50 under setting [2] worked out at 0.7 nM. The corresponding values for `CC(=O)N[C@@H](CCCNC(=N)N)C(=O)N[C@H]1CCC(=O)NCCC[C@@H](C(=O)O)NC(=O)[C@H](Cc2c[nH]c3ccccc23)NC(=O)[C@H](CCCNC(=N)N)NC(=O)[C@@H](Cc2ccccc2)NC(=O)[C@H](CCN)NC1=O` [No. 5, Ac-Arg-cyclo(Glu-Dab-D-Phe-Arg-Trp-Orn)-OH] are 94% and 2 nM.

As to `CC(=O)N[C@@H](CCCNC(=N)N)C(=O)N[C@H]1CCC(=O)NCCC[C@@H](C(=O)O)NC(=O)[C@H](Cc2c[nH]c3ccccc23)NC(=O)[C@H](CCCNC(=N)N)NC(=O)[C@@H](Cc2ccccc2)NC(=O)[C@H](CCCN)NC1=O` [No. 7, Ac-Arg-cyclo(GIu-Orn-D-Phe-Arg-Trp-Orn)-OH], the maximal response (Emax) under setting [1] was determined as 92%. Moreover, the concentration giving a half-maximal response (EC50) under setting [2] came out at 4 nM. Consider `CC(=O)N[C@@H](CCCNC(=N)N)C(=O)N[C@H]1CCC(=O)NCCC[C@@H](C(=O)O)NC(=O)[C@H](Cc2c[nH]c3ccccc23)NC(=O)[C@H](CCCNC(=N)N)NC(=O)[C@@H](Cc2ccccc2)NC(=O)[C@H](CCCNC(=N)N)NC1=O` [No. 9, Ac-Arg-cyclo(Glu-Arg-D-Phe-Arg-Trp-Orn)-OH], for which the maximal effect (Emax) under setting [1] came to 82%. Moreover, the concentration for a half-maximal effect (EC50) under setting [2] was determined as 2 nM. Turning to `CC(=O)N[C@@H](CCCNC(=N)N)C(=O)N[C@H]1CCC(=O)NCCC[C@@H](C(N)=O)NC(=O)[C@H](Cc2c[nH]c3ccccc23)NC(=O)[C@H](CCCNC(=N)N)NC(=O)[C@@H](Cc2ccccc2)NC(=O)[C@H](CCCNC(=N)N)NC1=O` [No. 10, Ac-Arg-cyclo(Glu-Arg-D-Phe-Arg-Trp-Orn)-NH2], the Emax under setting [1] is 98%. For `CC(=O)N[C@@H](CCCNC(=N)N)C(=O)N[C@H]1CCC(=O)NCCC[C@@H](C(=O)O)NC(=O)[C@H](Cc2c[nH]c3ccccc23)NC(=O)[C@H](CCCNC(=N)N)NC(=O)[C@@H](Cc2ccccc2)NC(=O)[C@H](CCC(N)=O)NC1=O` [No. 11, Ac-Arg-cyclo(Glu-Gln-D-Phe-Arg-Trp-Orn)-OH], the Emax under setting [1] came out at 81%. For the compound `CC(=O)N[C@@H](CCCNC(=N)N)C(=O)N[C@H]1CCC(=O)NCCC[C@@H](C(N)=O)NC(=O)[C@H](Cc2c[nH]c3ccccc23)NC(=O)[C@H](CCCNC(=N)N)NC(=O)[C@@H](Cc2ccccc2)NC(=O)[C@@H]2C[C@@H](O)CN2C1=O` [No. 14, Ac-Arg-cyclo(Glu-Hyp-D-Phe-Arg-Trp-Orn)-NH2], the maximum response (Emax) under setting [1] was 104%.

As for `CC(=O)N[C@@H](CCCNC(=N)N)C(=O)N[C@H]1CCC(=O)NCCC[C@@H](C(N)=O)NC(=O)[C@H](Cc2c[nH]c3ccccc23)NC(=O)[C@H](CCCNC(=N)N)NC(=O)[C@@H](Cc2ccccc2)NC(=O)[C@H](CCCNC(N)=O)NC1=O` [No. 15, Ac-Arg-cyclo(Glu-Cit-D-Phe-Arg-Trp-Orn)-NH2], the maximal effect (Emax) under setting [1] is 87%.

Take `CC(=O)N[C@@H](CCCNC(=N)N)C(=O)N[C@H]1CCC(=O)NCCC[C@@H](C(N)=O)NC(=O)[C@H](Cc2c[nH]c3ccccc23)NC(=O)[C@H](CCCNC(=N)N)NC(=O)[C@@H](Cc2ccccc2)NC(=O)[C@H](CCCCN)NC1=O` [No. 16, Ac-Arg-cyclo(Glu-Lys-D-Phe-Arg-Trp-Orn)-NH2] (Ac-REK[dF]RW[Orn]-NH2; lactam 2-7): under setting [1], the Emax amounted to 104%. Moreover, the concentration giving a half-maximal response (EC50) under setting [2] was determined as 2 nM.

In the case of `CC(=O)NCC[C@@H]1NC(=O)[C@@H](NC(=O)[C@H](CCCNC(=N)N)NC(C)=O)CCC(=O)NCCC[C@@H](C(N)=O)NC(=O)[C@H](Cc2c[nH]c3ccccc23)NC(=O)[C@H](CCCNC(=N)N)NC(=O)[C@@H](Cc2ccccc2)NC1=O` [No. 18, Ac-Arg-cyclo(Glu-Dab(Acetyl)-D-Phe-Arg-Trp-Orn)-NH2], the maximal effect (Emax) under setting [1] stood at 75%. Regarding `CC(=O)N[C@@H](CCCNC(=N)N)C(=O)N[C@H]1CCC(=O)NCCC[C@@H](C(=O)NC2CC2)NC(=O)[C@H](Cc2c[nH]c3ccccc23)NC(=O)[C@H](CCCNC(=N)N)NC(=O)[C@@H](Cc2ccccc2)NC(=O)[C@H](CCC(N)=O)NC1=O` [No. 19, Ac-Arg-cyclo(Glu-Gln-D-Phe-Arg-Trp-Orn)-NH-cycProp], the Emax under setting [1] is 91%. Further, the concentration for a half-maximal effect (EC50) under setting [2] was 1 nM. For the compound `CC(=O)N[C@@H](CCCNC(=N)N)C(=O)N[C@H]1CCC(=O)NCCC[C@@H](C(=O)O)NC(=O)[C@H](Cc2c[nH]c3ccccc23)NC(=O)[C@H](CCCNC(=N)N)NC(=O)[C@@H](Cc2ccccc2)NC(=O)[C@H](CC(N)=O)NC1=O` [No. 20, Ac-Arg-cyclo(Glu-Asn-D-Phe-Arg-Trp-Orn)-OH], the maximal response (Emax) under setting [1] worked out at 76%. The concentration for a half-maximal effect (EC50) under setting [2] came out at 12 nM. Take `CC(=O)N[C@H]1CCC(=O)NCCC[C@@H](C(N)=O)NC(=O)[C@H](Cc2c[nH]c3ccccc23)NC(=O)[C@H](CCCNC(=N)N)NC(=O)[C@@H](Cc2ccccc2)NC(=O)[C@H](CCC(N)=O)NC1=O` [No. 21, Ac-cyclo(Glu-Gln-D-Phe-Arg-Trp-Orn)-NH2] (Ac-EQ[dF]RW[Orn]-NH2; lactam 1-6): the Emax under setting [1] came out at 49%. Further, under setting [2], the EC50 came to 26 nM.

For `CC(=O)N[C@H](CCCNC(=N)N)C(=O)N[C@H]1CCCNC(=O)CC[C@@H](C(N)=O)NC(=O)[C@H](Cc2c[nH]c3ccccc23)NC(=O)[C@H](CCCNC(=N)N)NC(=O)[C@@H](Cc2ccccc2)NC(=O)[C@H](Cc2c[nH]cn2)NC1=O` [No. 39, Ac-D-Arg-cyclo(Orn-His-D-Phe-Arg-Trp-Glu)-NH2], under setting [1], the maximal effect (Emax) was determined as 103%. For the same compound, the EC50 under setting [2] came to 0.2 nM. Turning to `CC(=O)N[C@@H](CCCNC(=N)N)C(=O)N[C@H]1CCCNC(=O)CC[C@@H](C(=O)O)NC(=O)[C@H](Cc2c[nH]c3ccccc23)NC(=O)[C@H](CCCNC(=N)N)NC(=O)[C@@H](Cc2ccccc2)NC(=O)[C@H](CCN)NC1=O` [No. 42, Ac-Arg-cyclo(Orn-Dab-D-Phe-Arg-Trp-Glu)-OH], under setting [1], the Emax was 100%. Turning to `CC(=O)N[C@@H](CCCNC(=N)N)C(=O)N[C@H]1CCCNC(=O)CC[C@@H](C(N)=O)NC(=O)[C@H](Cc2c[nH]c3ccccc23)NC(=O)[C@H](CCCNC(=N)N)NC(=O)[C@@H](Cc2ccccc2)NC(=O)[C@H](CC(N)=O)NC1=O` [No. 46, Ac-Arg-cyclo(Orn-Asn-D-Phe-Arg-Trp-Glu)-NH2], the Emax under setting [1] came to 88%. Still for that read-out and setting: the figure for `CC(=O)N[C@@H](CCCNC(=N)N)C(=O)N[C@H]1CC(=O)NCCCC[C@@H](C(N)=O)NC(=O)[C@H](Cc2c[nH]c3ccccc23)NC(=O)[C@H](CCCNC(=N)N)NC(=O)[C@@H](Cc2ccccc2)NC(=O)[C@H](CCN)NC1=O` [reference compound] is 91%; for `CC(=O)N[C@@H](CCCNC(=N)N)C(=O)N[C@H]1CC(=O)NCCCC[C@@H](C(=O)O)NC(=O)[C@H](Cc2c[nH]c3ccccc23)NC(=O)[C@H](CCCNC(=N)N)NC(=O)[C@@H](Cc2ccccc2)NC(=O)[C@H](CCCNC(=N)N)NC1=O` [reference compound] it is 75%; for `CC(=O)N[C@@H](CCCNC(=N)N)C(=O)N[C@H]1CC(=O)NCCCC[C@@H](C(N)=O)NC(=O)[C@H](Cc2c[nH]c3ccccc23)NC(=O)[C@H](CCCNC(=N)N)NC(=O)[C@@H](Cc2ccccc2)NC(=O)[C@H](CCCNC(=N)N)NC1=O` [reference compound] it is 68%. `CC(=O)N[C@@H](CCCNC(=N)N)C(=O)N[C@H]1CC(=O)NCCCC[C@@H](C(=O)O)NC(=O)[C@H](Cc2c[nH]c3ccccc23)NC(=O)[C@H](CCCNC(=N)N)NC(=O)[C@@H](Cc2ccccc2)NC(=O)[C@H](CCC(N)=O)NC1=O` [reference compound]: the maximum response (Emax) under setting [1] is 80%. In addition, under setting [2], the 50% effective concentration (EC50) amounted to 19 nM. `CC(=O)N[C@@H](CCCNC(=N)N)C(=O)N[C@H]1CC(=O)NCCCC[C@@H](C(N)=O)NC(=O)[C@H](Cc2c[nH]c3ccccc23)NC(=O)[C@H](CCCNC(=N)N)NC(=O)[C@@H](Cc2ccccc2)NC(=O)[C@H](CCC(N)=O)NC1=O` [reference compound] displayed an EC50 of 17 nM. Further, under setting [1], the maximum response (Emax) was determined as 85%.
